Tests used:
[1] = oral co-administration with the taxane; cited from earlier work
HCC1806 = assay: Cytotoxicity assay; assay type: cell-based; settings: Homo sapiens, HCC1806, 48 h, read-out: IC50 (μM) DTX only
cyclin D1 = assay: Western blot, cyclin D1 expression in MDA-MB-231 cells; assay type: cell-based; settings: MDA-MB-231, DTX 0.1 μM and/or 1 μM PPL, 48 hr, densitometry
p53 = assay: Western blot, p53 expression in MDA-MB-231 cells; assay type: cell-based; settings: MDA-MB-231, DTX 0.1 μM and/or 1 μM PPL, 48 hr, densitometry
survivin = assay: Western blot, survivin expression in MDA-MB-231 cells; assay type: cell-based; settings: MDA-MB-231, DTX 0.1 μM and/or 1 μM PPL, 48 hr, densitometry
HS578T = assay: Cytotoxicity assay; assay type: cell-based; settings: Homo sapiens, Hs-578T, 48 h, read-out: IC50 (μM) DTX only
HCC70 = assay: Cytotoxicity assay; assay type: cell-based; settings: Homo sapiens, HCC70, 48 h, read-out: IC50 (μM) DTX only
[2] = In vivo pharmacokinetic in rats; design: species or system Sprague Dawley rats
MDA-MB-231 = assay: Cytotoxicity assay; assay type: cell-based; settings: Homo sapiens, MDA-MB-231, 48 h, read-out: IC50 (μM) DTX only
MDA-MB-231 cells = assay: In vitro migration; assay type: cell-based
Bcl-2 = assay: Western blot, Bcl-2 expression in MDA-MB-231 cells; assay type: cell-based; settings: MDA-MB-231, DTX 0.1 μM and/or 1 μM PPL, 48 hr, densitometry
MDA-MB-468 = assay: Cytotoxicity assay; assay type: cell-based; settings: Homo sapiens, MDA-MB-468, 48 h, read-out: IC50 (μM) DTX only
P-gp = P-gp (Homo sapiens, UniProt P08183); assay: Caco-2 uptake study of P-gp substrates; settings: Caco-2 cells, 50 μM PPL or verapamil
Chain of P-gp (P08183 whole entry): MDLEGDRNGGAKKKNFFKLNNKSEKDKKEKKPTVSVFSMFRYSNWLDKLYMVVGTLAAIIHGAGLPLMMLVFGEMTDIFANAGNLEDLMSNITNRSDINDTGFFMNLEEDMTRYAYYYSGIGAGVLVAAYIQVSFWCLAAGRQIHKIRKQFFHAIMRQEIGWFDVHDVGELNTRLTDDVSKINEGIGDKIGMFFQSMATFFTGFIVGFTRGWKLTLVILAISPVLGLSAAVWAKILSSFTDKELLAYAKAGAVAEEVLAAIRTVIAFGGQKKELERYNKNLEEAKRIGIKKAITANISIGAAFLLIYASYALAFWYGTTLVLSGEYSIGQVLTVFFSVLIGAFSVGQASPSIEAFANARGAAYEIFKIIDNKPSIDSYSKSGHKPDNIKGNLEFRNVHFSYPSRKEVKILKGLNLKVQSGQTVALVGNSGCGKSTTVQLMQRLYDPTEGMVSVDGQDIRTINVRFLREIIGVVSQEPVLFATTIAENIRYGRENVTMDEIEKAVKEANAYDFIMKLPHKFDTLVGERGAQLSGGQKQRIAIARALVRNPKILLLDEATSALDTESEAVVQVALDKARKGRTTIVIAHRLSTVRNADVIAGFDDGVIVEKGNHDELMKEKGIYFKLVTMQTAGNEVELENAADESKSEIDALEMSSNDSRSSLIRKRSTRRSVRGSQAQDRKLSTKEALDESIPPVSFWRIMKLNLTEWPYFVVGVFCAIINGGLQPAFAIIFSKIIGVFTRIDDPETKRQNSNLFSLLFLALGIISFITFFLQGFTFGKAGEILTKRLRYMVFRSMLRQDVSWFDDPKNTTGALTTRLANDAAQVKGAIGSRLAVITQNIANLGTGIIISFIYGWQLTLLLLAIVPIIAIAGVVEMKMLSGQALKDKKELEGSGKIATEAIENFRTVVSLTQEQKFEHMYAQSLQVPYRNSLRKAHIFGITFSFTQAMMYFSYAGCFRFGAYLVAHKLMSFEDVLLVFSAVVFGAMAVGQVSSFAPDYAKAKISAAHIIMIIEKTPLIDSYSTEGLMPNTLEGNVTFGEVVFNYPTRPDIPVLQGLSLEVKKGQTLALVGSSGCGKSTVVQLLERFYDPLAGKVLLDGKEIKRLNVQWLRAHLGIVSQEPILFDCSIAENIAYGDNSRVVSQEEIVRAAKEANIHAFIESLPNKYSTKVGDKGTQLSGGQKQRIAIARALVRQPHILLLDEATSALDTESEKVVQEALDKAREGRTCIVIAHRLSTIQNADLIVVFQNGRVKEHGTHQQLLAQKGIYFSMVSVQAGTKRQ

CYP3A4 = settings: 50 μM PPL or CYA, 5 μM TST, human liver microsomes, over 60 min
[3] = test system: triple negative breast cancer (TNBC) cell lines; assay: Cytotoxicity in TNBC cell lines; assay type: cell-based
[4] = Sprague Dawley, rat, plasma, iv, 5 mg/kg

Structure (SMILES): CC(C)c1nc(CN(C)C(=O)N[C@H](C(=O)N[C@@H](Cc2ccccc2)C[C@H](O)[C@H](Cc2ccccc2)NC(=O)OCc2cncs2)C(C)C)cs1 [ritonavir]
- increase in plasma concentrations of docetaxel [1]: 7.3 fold
- increase in plasma concentrations of paclitaxel [1]: 2.5 fold

Structure (SMILES): CC(=O)O[C@@]12CO[C@@H]1C[C@H](O)[C@@]1(C)C(=O)[C@H](O)C3=C(C)[C@@H](OC(=O)[C@H](O)[C@@H](NC(=O)OC(C)(C)C)c4ccccc4)C[C@@](O)([C@@H](OC(=O)c4ccccc4)[C@H]21)C3(C)C [DTX, Docetaxel]
- IC50 (HCC1806): 0.0022 ± 0.001 µM
- cyclin D1 relative expression reduced compared to untreated control (cyclin D1): 0.8 fold
- increase in expression of p53 compared to untreated control (p53): 1.2 fold
- survivin expression down regulated compared to control (survivin): 1.03 fold
- IC50 (HS578T): 0.077 ± 0.013 µM
- IC50 (HCC70): 0.019 ± 0.008 µM
- Absolute BA ([2]; SD rats, oral DTX 10 mg/kg (PPL 50 mg/kg where co-administered) vs IV 5 mg/kg): 9.26%
- time after which DTX plasma concentration was non-detectable ([2]; SD rats, oral administration): 8 h
- AUC [2, 4]: 5290 ± 1100 ng·h/mL
- Cmax [2, 4]: 6100 ± 1700 ng/mL
- MRT [2, 4]: 1.99 ± 0.36 h
- half-life [2, 4]: 6.67 ± 1.6 h
- IC50 (MDA-MB-231): 0.458 ± 0.081 µM
- percent bridging of scratch area (MDA-MB-231 cells; MDA-MB-231, 48 h, 0.1 μM DTX (combination with 1 μM PPL)): 49.3%
- percent bridging of scratch area (MDA-MB-231 cells; MDA-MB-231, 48 h, 0.4 μM DTX (combination with 1 μM PPL)): 33.8%
- Bcl-2 expression reduced compared to untreated control (Bcl-2): 2.59 fold
- IC50 (MDA-MB-468): 0.36 ± 0.069 µM

Structure (SMILES): COc1cc(/C=C/C(=O)N2CCC=CC2=O)cc(OC)c1OC [PPL, Piperlongumine]
- cyclin D1 relative expression reduced compared to untreated control (cyclin D1): 2.10 fold
- intracellular uptake of R123 (green fluorescence intensity) (P-gp; 1 μM rhodamine 123, 90 min, qualitative): green fluorescence intensity was higher
- higher intracellular accumulation (uptake) of DTX (P-gp; 5 μM DTX, 90 min): 1.34 fold
- increase in expression of p53 compared to untreated control (p53): 1.1 fold
- survivin expression down regulated compared to control (survivin): 1.19 fold
- reduction in TST metabolism (CYP3A4): ~50%
- percent bridging of migration area (MDA-MB-231 cells; MDA-MB-231, 48 h, 1 μM PPL alone): comparable to control
- anti-migration effect (MDA-MB-231 cells; PPL at concentration below 4 μM): no anti-migration effect
- Bcl-2 expression reduced compared to untreated control (Bcl-2): 2.74 fold
- cytotoxicity ([3]; PPL at 1 μM): no cytotoxcity
- cell killing ([3]; PPL below 4 μM): not shown a significant cell killing

Structure (SMILES): O=C(/C=C/C=C/c1ccc2c(c1)OCO2)N1CCCCC1 [piperine]
- anticancer and synergistic effect with docetaxel ([3]; in vitro studies, data not shown): did not show potent anticancer and synergistic effect
